Assay results published in patent publication US20180243190A1, “ACTIVATORS OF NRF2-DEPENDENT PHOTOPROTECTION AND RELATED USES THEREOF” (THE ARIZONA BOARD OF REGENTS ON BEHALF OF THE UNIVERSITY OF …, priority 2015, published 2018).

Tests used:
[1] = test system: HaCaT keratinocytes; assay: GSH-Glo glutathione assay; format: cell-based, human; conditions: bixin 0-40 μM, 24 h
Description: Total intracellular glutathione in cultured cells was analyzed using the luminescent GSH-Glo glutathione assay (Promega). Cells were harvested and then counted using a Z2 Coulter counter, and GSH was determined per 10,000 viable cells. Data represent relative levels of glutathione normalized for cell number (treated versus solvent controls).

[2] = test system: NRF2, KEAP1, GCLM, AKR1C1 mRNA; assay: Quantitative real-time RT-PCR in HaCaT cells; format: cell-based, human; conditions: 40 μM, 4 h and 16 h
Description: Total RNA was extracted from HaCaT cells and mouse skin tissues using TRIzol (Invitrogen). Equal amounts of mRNA were used to generate cDNA using the M-MLV Reverse Transcriptase synthesis kit according to the manufacturer's instructions (Promega). RT-PCR and primer sequences of NRF2, KEAP1, GCLM, AKR1C1 and GAPDH were described previously to evaluate mRNA expression using the LightCycler 480 system (Roche). Quantification of cDNA amount for mouse Nrf2, Keap1, Gclm, and Akr1c1 in each skin tissue sample was performed using the KAPA SYBR FAST qPCR Kit (Kapa Biosystems).

[3] = test system: NRF2; assay: Immunoblot analysis of NRF2 and NRF2 targets in HEKs; format: cell-based, human; conditions: ≤20 μM, 24 h, exposure time ≤24 h at 20 μM
Description: Experiments were performed according to previously published procedures. Cells were harvested in sample buffer (50 mM Tris-HCl [pH 6.8], 2% sodium dodecyl sulfate (SDS), 10% glycerol, 100 mM dithiothreitol (DTT), and 0.1% bromophenol blue), boiled and sonicated. Total cell lysates were resolved by SDS-PAGE and subjected to immunoblot analyses with the indicated antibodies. For the ubiquitination assay, cells were cotransfected with expression vectors for NRF2 and HA-tagged ubiquitin (HA-Ub). Cells were left untreated or treated with either 5 μM sulforaphane (SF) or 40 μM bixin along with 10 μM MG132 for 4 h. Cells were harvested in buffer containing 2% SDS, 150 mM NaCl, 10 mM Tris-HCl (pH 8.0), and 1 mM DTT and boiled immediately. For immunoprecipitation, 1 μg of NRF2 antibody was incubated with the cell lysates at 4° C. overnight with protein A agarose beads (Invitrogen). Immunoprecipitated complexes were washed four times with RIPA buffer and eluted in sample buffer by boiling for 5 min. Samples were resolved by SDS-PAGE and immunoblotted with HA antibody. To measure the half-life of NRF2, HaCaT cells were either left untreated or treated with 5 μM bixin for 4 h, then 50 μM cycloheximide was added to block protein synthesis. […] The relative intensity of the bands was quantified using the ChemiDoc CRS gel documentation system and Quantity One software (BioRad).

[4] = test system: NRF2; assay: Immunoblot analysis in human primary melanocytes; format: cell-based; conditions: 0-40 μM
Description: Human cultured primary melanocytes (skin pigment producing cells) were treated with Bixin (0-40 μM) for up to 16 h. After 4 and 16 h, cells were harvested for immunoblot analysis testing for Nrf2 upregulation (Nrf2) GAPDH served as loading control.
Human cultured primary melanocytes (skin pigment producing cells) were treated with Bixin (0-40 μM) for 16 h. After 16 h, cells were harvested for immunoblot analysis testing for upregulation of cytoprotective Nrf2 targets including NQO1 and TrxR1. GAPDH served as loading control.

[5] = test system: NRF2; assay: Cell-based NRF2 ubiquitination assay; design: species or system human; conditions: HaCaT, bixin 40 μM or SF 5 μM with MG132 10 μM, 4 h
Description: In order to test if bixin-based NRF2 activation occurs through inhibition of KEAP1-mediated ubiquitination, a cell-based ubiquitination assay was performed in HaCaT cells cotransfected with expression vectors for NRF2 and HA-tagged ubiquitin (HA-Ub) (FIG. 3F). To this end, cells were either exposed to bixin (40 μM) or sulforaphane (SF; 5 μM, positive control) or left untreated, combined with proteasome inhibition (MG132; 10 μM, 4 h).
Experiments were performed according to previously published procedures. Cells were harvested in sample buffer (50 mM Tris-HCl [pH 6.8], 2% sodium dodecyl sulfate (SDS), 10% glycerol, 100 mM dithiothreitol (DTT), and 0.1% bromophenol blue), boiled and sonicated. Total cell lysates were resolved by SDS-PAGE and subjected to immunoblot analyses with the indicated antibodies. For the ubiquitination assay, cells were cotransfected with expression vectors for NRF2 and HA-tagged ubiquitin (HA-Ub). Cells were left untreated or treated with either 5 μM sulforaphane (SF) or 40 μM bixin along with 10 μM MG132 for 4 h. Cells were harvested in buffer containing 2% SDS, 150 mM NaCl, 10 mM Tris-HCl (pH 8.0), and 1 mM DTT and boiled immediately. […] The relative intensity of the bands was quantified using the ChemiDoc CRS gel documentation system and Quantity One software (BioRad).

[6] = test system: HaCaT keratinocytes
Description: Photodynamic induction of intracellular oxidative stress and its suppression by bixin pretreatment was analyzed by flow cytometry using 2′,7′-dichlorodihydrofluorescein diacetate (DCFH-DA) as a sensitive non-fluorescent precursor dye according to a published standard procedure [14]. HaCaT keratinocytes were pretreated with bixin (1 or 24 h) and then exposed to singlet oxygen generated by dye-sensitization as described earlier [14, 44]. In brief, toluidine blue 0 (TB) photosensitization was achieved using a ‘Sylvania 15 W Cool White’ light tube delivering visible light at an irradiance of 4.29 mW/cm^2. The irradiance in the visible region (400-700 nm) was determined using a spectroradiometer, Model 754 from Optronic Laboratories (Orlando, Fla.). Cells received visible radiation at a distance of 50 mm from the source through the polystyrene lids of cell culture dishes. For ^1O2 exposure, cells were washed with PBS and immediately exposed to the combined action of visible light (0.3 J/cm^2) and TB (3.3 μM) in PBS. Following 5 min incubation in the dark after irradiation, cells were washed with PBS. Cells were then incubated for 60 min in the dark (37° C., 5% CO2) with culture medium containing DCFH-DA (5 μg/mL final concentration). Cells were then washed with PBS, harvested by trypsinization, resuspended in 300 μl PBS, and analyzed by flow cytometry.

[7] = design: species or system SKH-1 mice; conditions: mouse, in vivo, 200 mg/kg
Description: To explore the potential systemic photoprotective activity of bixin in a murine skin sunburn model, the feasibility of upregulating cutaneous NRF2 activity by systemic administration was first examined. It has been reported earlier that efficient cutaneous accumulation of dietary carotenoids requires prolonged nutritional supplementation over weeks and that pharmacokinetic parameters of cutaneous delivery of dietary carotinoids differ between humans and mice. Therefore, in order to circumvent the more complex pharmacokinetics associated with dietary supplementation, an intraperitoneal (i.p.) route for bixin systemic administration followed by examination of cutaneous NRF2 status was chosen. After i.p. injection of bixin (200 mg/kg) performed in Nrf2^+/+ and Nrf2^−/− mice, plasma was collected at 0, 1, 2, 4, 8, 16, 24, 48 and 72 h after injection followed by HPLC-photodiode array detection (FIG. 4A-C). […] Next, efficacy of various bixin treatment regimens (differing with regard to total dose and time after injection) for maximum activation of the NRF2 pathway in murine skin was determined (FIG. 4D).
Electrospray mass spectrometry of bixin [dissolved in tetrahydrofuran and diluted tenfold in acetonitrile/NH4OH (0.1 N); ESI-MS (negative ion mode) m/z 393.21 (M−1)^−] was performed using a Bruker Apex FT/ICR mass spectrometer. […]

[8] = test system: primary human epidermal keratinocytes (HEKs); assay: Oxidative Stress RT2 Profiler PCR Expression Array analysis; format: cell-based; conditions: bixin 20 μM, 24 h
Description: Total cellular RNA was prepared according to a standard procedure using the RNeasy kit (Qiagen, Valencia, Calif., USA). Reverse transcription was performed using the RT^2 First Strand kit (SuperArray, Frederick, Md., USA) and 1 μg total RNA. The Human Oxidative Stress RT^2Profiler™ PCR Expression Array (SuperArray) profiling the expression of 84 stress-related genes was employed as described before. Gene-specific product was normalized to ACTB and quantified using the comparative (ΔΔCt) Ct method following the ABI Prism 7000 sequence detection system user guide. Expression values were averaged across three independent array experiments followed by statistical analysis.

## COC(=O)/C=C/C(C)=C\C=C\C(C)=C\C=C\C=C(C)\C=C\C=C(C)\C=C\C(=O)O [bixin]
[1]
  increase of total cellular glutathione: ~50%
[2]
  NRF2 or KEAP1 mRNA levels: without affecting
  NRF2 target genes at the mRNA level (GCLM, AKR1C1): pronounced upregulation
[3]
  protein levels of NRF2 and NRF2 targets (NQO1, AKR1C2, HO-1, TrxR, GCLM, SRXN1, FTH1): increased protein levels
[4]; 4 and 16 h
  Nrf2 upregulation in melanocytes: efficient Nrf2 activator
[4]; 16 h
  upregulation of cytoprotective Nrf2 targets NQO1 and TrxR1 in melanocytes: efficient activator
[5]
  NRF2-ubiquitination versus untreated control: dramatic reduction
[6]
  DCF fluorescence after compound only (no dye sensitization): did not cause an increase
[6]; HaCaT, 20 μM, 1 h preincubation
  protection against 1O2-induced oxidative stress: without protective effects
[6]; HaCaT, 20 μM, 24 h preincubation
  suppression of 1O2-induced increase in DCF fluorescence: efficiently suppressed
[7]
  AUC, Nrf2+/+ versus Nrf2−/−: did not differ significantly
[7]; ip
  peak plasma concentration (Cmax): up to 11.3 μg/ml
[8]
  expression of NRF2 target genes (AKR1C2, GCLC, NQO1, SLC7A11, FTH1, TXNRD1, NCF2, SRXN): Pronounced upregulation
